Laboratory results taken from patent US11034694B2, “Substituted isoindolin-1-ones and 2,3-dihydro-1H-pyrrolo[3,4-c]pyridin-1-ones as HPK1 antagonists” (Nimbus Saturn, Inc., priority 2019, dated 2021).

Target: HPK1 (Homo sapiens (Human), UniProt Q92918)
Test: HPK1 biochemical enzyme assay (microfluidic mobility shift assay)
Conditions: 1 mM ATP; 1.5 nM HPK1; 30 min preincubation, 60 min reaction; Caliper EZ Reader; read-out: HPK1 1000UMATP caliper IC50
Protocol: HPK1 biochemical enzyme assay: HPK1 enzyme inhibition was measured using a microfluidic mobility shift assay. […] Test compounds were titrated in ten point curves (top final assay concentration 3 μM), and preincubated with enzyme/substrate mix for 30 min prior to initiation of the reaction by addition of ATP (1 mM final concentration) and substrate (1 μM final concentration; Carna Biosciences) diluted in assay buffer supplemented by MgCl2 (final assay concentration of 5 mM). Following 60 min incubation at RT, the reaction was terminated by addition of 60 μl/well termination buffer (Carna Biosciences) and signal determination using a Caliper EZ Reader (Perkin Elmer, UK).

Sequence of HPK1 (Q92918 whole entry): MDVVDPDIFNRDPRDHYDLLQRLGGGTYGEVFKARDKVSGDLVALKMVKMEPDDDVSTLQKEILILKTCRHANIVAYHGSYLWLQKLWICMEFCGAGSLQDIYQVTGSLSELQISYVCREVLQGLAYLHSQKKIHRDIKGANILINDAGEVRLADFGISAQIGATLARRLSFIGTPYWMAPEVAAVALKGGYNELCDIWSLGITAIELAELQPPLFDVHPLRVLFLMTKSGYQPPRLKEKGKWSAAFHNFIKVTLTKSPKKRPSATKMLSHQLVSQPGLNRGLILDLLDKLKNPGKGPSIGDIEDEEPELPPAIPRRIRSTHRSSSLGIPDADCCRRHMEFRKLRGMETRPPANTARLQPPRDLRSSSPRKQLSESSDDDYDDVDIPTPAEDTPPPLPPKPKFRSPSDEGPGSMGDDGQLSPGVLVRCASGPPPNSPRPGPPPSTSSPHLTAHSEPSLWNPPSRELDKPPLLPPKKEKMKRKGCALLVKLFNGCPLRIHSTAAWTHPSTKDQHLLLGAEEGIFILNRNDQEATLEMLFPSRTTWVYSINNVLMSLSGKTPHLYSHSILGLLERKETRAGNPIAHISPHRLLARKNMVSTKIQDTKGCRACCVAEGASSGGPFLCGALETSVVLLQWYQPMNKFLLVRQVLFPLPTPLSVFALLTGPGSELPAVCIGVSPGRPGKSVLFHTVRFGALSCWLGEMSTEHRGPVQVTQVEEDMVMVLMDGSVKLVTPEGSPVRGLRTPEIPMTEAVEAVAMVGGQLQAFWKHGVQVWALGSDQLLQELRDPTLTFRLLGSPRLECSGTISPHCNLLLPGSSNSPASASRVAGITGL

IC50: < 100 nM
Structure (SMILES): O=C1NCc2c(-c3cnc4cc(F)ccn34)ccc(Nc3ccc(N4CC5CCC(C4)C5O)cn3)c21 (stereo not shown) [I-405, 4-(7-fluoroimidazo [1,2-a]pyridin-3-yl)-7-((5-(8-hydroxy-3-azabicyclo [3.2.1]octan-3-yl)pyridin-2-yl)amino)isoin-dolin-1-one]
